According to PubChem BioAssay (NCI):
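96-well plates; 48 h exposure; 5 concentrations. Endpoints by linear interpolation between flanking doses. Not reached: highest tested concentration assigned. GI50 marks 50% less growth. TGI: concentration producing complete growth inhibition.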

Legend:
Test in all cases: DTP human tumour cell line panel, 48 h
786-0 renal = tested on: 786-0 renal
A498 renal = tested on: A498 renal
A549 NSCLC = tested on: A549 NSCLC
ACHN renal = tested on: ACHN renal
BT-549 breast = tested on: BT-549 breast
CAKI-1 renal = tested on: CAKI-1 renal
CCRF-CEM leukemia = tested on: CCRF-CEM leukemia
COLO 205 colon = tested on: COLO 205 colon
DU-145 prostate = tested on: DU-145 prostate
EKVX NSCLC = tested on: EKVX NSCLC
HCC-2998 colon = tested on: HCC-2998 colon
HCT-116 colon = tested on: HCT-116 colon
HCT-15 colon = tested on: HCT-15 colon
HL-60(TB) leukemia = tested on: HL-60(TB) leukemia
HOP-62 NSCLC = tested on: HOP-62 NSCLC
HOP-92 NSCLC = tested on: HOP-92 NSCLC
HS 578T breast = tested on: HS 578T breast
HT29 colon = tested on: HT29 colon
IGROV1 ovarian = tested on: IGROV1 ovarian
K-562 leukemia = tested on: K-562 leukemia
KM12 colon = tested on: KM12 colon
LOX IMVI melanoma = tested on: LOX IMVI melanoma
M14 melanoma = tested on: M14 melanoma
MALME-3M melanoma = tested on: MALME-3M melanoma
MCF7 breast = tested on: MCF7 breast
MDA-MB-231 breast = tested on: MDA-MB-231 breast
MDA-MB-435 = tested on: MDA-MB-435
MOLT-4 leukemia = tested on: MOLT-4 leukemia
NCI-H226 lung = tested on: NCI-H226 lung
NCI-H23 lung = tested on: NCI-H23 lung
NCI-H460 lung = tested on: NCI-H460 lung
NCI-H522 lung = tested on: NCI-H522 lung
NCI/ADR-RES ovarian = tested on: NCI/ADR-RES ovarian
OVCAR-3 ovarian = tested on: OVCAR-3 ovarian
OVCAR-4 ovarian = tested on: OVCAR-4 ovarian
OVCAR-5 ovarian = tested on: OVCAR-5 ovarian
OVCAR-8 ovarian = tested on: OVCAR-8 ovarian
PC-3 prostate = tested on: PC-3 prostate
RPMI-8226 leukemia = tested on: RPMI-8226 leukemia
RXF 393 renal = tested on: RXF 393 renal
SF-268 CNS = tested on: SF-268 CNS
SF-295 CNS = tested on: SF-295 CNS
SF-539 CNS = tested on: SF-539 CNS
SK-MEL-2 melanoma = tested on: SK-MEL-2 melanoma
SK-MEL-28 melanoma = tested on: SK-MEL-28 melanoma
SK-MEL-5 melanoma = tested on: SK-MEL-5 melanoma
SK-OV-3 ovarian = tested on: SK-OV-3 ovarian
SN12C renal = tested on: SN12C renal
SNB-19 CNS = tested on: SNB-19 CNS
SNB-75 CNS = tested on: SNB-75 CNS
SW-620 colon = tested on: SW-620 colon
T-47D breast = tested on: T-47D breast
TK-10 renal = tested on: TK-10 renal
U251 CNS = tested on: U251 CNS
UACC-257 melanoma = tested on: UACC-257 melanoma
UACC-62 melanoma = tested on: UACC-62 melanoma
UO-31 renal = tested on: UO-31 renal

Work on `Cc1ccc(NC2=CC(=O)C(=O)c3ccccc32)c(C)c1` yielded a GI50 (786-0 renal) of 8.44 µM, a TGI (786-0 renal) of 20.8 µM and a GI50 (A498 renal) of 4.69 µM. It also gave a TGI (A498 renal) of 17.8 µM, a GI50 (A549 NSCLC) of 1.97 µM and a TGI (A549 NSCLC) of 4.34 µM. For the same molecule, the GI50 (ACHN renal) was 3.71 µM, the TGI (ACHN renal) was 13.9 µM and the GI50 (BT-549 breast) was 2.17 µM. The TGI (BT-549 breast) was 7.2 µM, the GI50 (CAKI-1 renal) was 2 µM and the TGI (CAKI-1 renal) was 7.95 µM. For the same molecule, the GI50 (CCRF-CEM leukemia) was 6.23 µM, the TGI (CCRF-CEM leukemia) was greater than 100 µM and the GI50 (COLO 205 colon) was 3.06 µM. For the same molecule, the TGI (COLO 205 colon) was 11.6 µM, the GI50 (DU-145 prostate) was 1.58 µM and the TGI (DU-145 prostate) was 2.93 µM. It also gave a GI50 (EKVX NSCLC) of 10.3 µM, a TGI (EKVX NSCLC) of 24.3 µM and a GI50 (HCC-2998 colon) of 2.54 µM. For the same molecule, the TGI (HCC-2998 colon) was 7.91 µM, the GI50 (HCT-116 colon) was 1.66 µM and the TGI (HCT-116 colon) was 4.23 µM. The GI50 (HCT-15 colon) was 2.74 µM, the TGI (HCT-15 colon) was 17.1 µM and the GI50 (HL-60(TB) leukemia) was 2.59 µM. For the same molecule, the TGI (HL-60(TB) leukemia) was 8.06 µM, the GI50 (HOP-62 NSCLC) was 3.24 µM and the TGI (HOP-62 NSCLC) was 12.5 µM. The GI50 (HOP-92 NSCLC) was 13.3 µM, the TGI (HOP-92 NSCLC) was 42.3 µM and the GI50 (HS 578T breast) was 2.35 µM. The TGI (HS 578T breast) was 7.99 µM, the GI50 (HT29 colon) was 2.51 µM and the TGI (HT29 colon) was 7.08 µM. It also gave a GI50 (IGROV1 ovarian) of 1.88 µM, a TGI (IGROV1 ovarian) of 6.68 µM and a GI50 (K-562 leukemia) of 4.03 µM. The TGI (K-562 leukemia) was 29.4 µM, the GI50 (KM12 colon) was 2.82 µM and the TGI (KM12 colon) was 13.1 µM. The GI50 (LOX IMVI melanoma) was 1.28 µM, the TGI (LOX IMVI melanoma) was 4.46 µM and the GI50 (M14 melanoma) was 1.78 µM. For the same molecule, the TGI (M14 melanoma) was 3.26 µM, the GI50 (MALME-3M melanoma) was 1.76 µM and the TGI (MALME-3M melanoma) was 3.78 µM. It also gave a GI50 (MCF7 breast) of 0.905 µM, a TGI (MCF7 breast) of 4.77 µM and a GI50 (MDA-MB-231 breast) of 3.03 µM. For the same molecule, the TGI (MDA-MB-231 breast) was 19.4 µM, the GI50 (MDA-MB-435) was 1.79 µM and the TGI (MDA-MB-435) was 3.48 µM. For the same molecule, the GI50 (MOLT-4 leukemia) was 2.88 µM, the TGI (MOLT-4 leukemia) was 16.6 µM and the GI50 (NCI-H226 lung) was 2.85 µM. For the same molecule, the TGI (NCI-H226 lung) was 12.2 µM, the GI50 (NCI-H23 lung) was 1.78 µM and the TGI (NCI-H23 lung) was 4.51 µM. It also gave a GI50 (NCI-H460 lung) of 2.57 µM, a TGI (NCI-H460 lung) of 7.68 µM and a GI50 (NCI-H522 lung) of 1.52 µM. For the same molecule, the TGI (NCI-H522 lung) was 5.87 µM, the GI50 (NCI/ADR-RES ovarian) was 2.92 µM and the TGI (NCI/ADR-RES ovarian) was 11.8 µM. The GI50 (OVCAR-3 ovarian) was 1.49 µM, the TGI (OVCAR-3 ovarian) was 4.47 µM and the GI50 (OVCAR-4 ovarian) was 2.53 µM. It also gave a TGI (OVCAR-4 ovarian) of 12.2 µM, a GI50 (OVCAR-5 ovarian) of 6.66 µM and a TGI (OVCAR-5 ovarian) of 21.6 µM. The GI50 (OVCAR-8 ovarian) was 3.32 µM, the TGI (OVCAR-8 ovarian) was 17 µM and the GI50 (PC-3 prostate) was 3.37 µM. The TGI (PC-3 prostate) was 17.1 µM, the GI50 (RPMI-8226 leukemia) was 4.84 µM and the TGI (RPMI-8226 leukemia) was 53.7 µM. For the same molecule, the GI50 (RXF 393 renal) was 9.59 µM, the TGI (RXF 393 renal) was 21.6 µM and the GI50 (SF-268 CNS) was 3.75 µM. For the same molecule, the TGI (SF-268 CNS) was 16.2 µM, the GI50 (SF-295 CNS) was 1.68 µM and the TGI (SF-295 CNS) was 3.37 µM. The GI50 (SF-539 CNS) was 3.63 µM, the TGI (SF-539 CNS) was 13.2 µM and the GI50 (SK-MEL-2 melanoma) was 2.29 µM. For the same molecule, the TGI (SK-MEL-2 melanoma) was 6.4 µM, the GI50 (SK-MEL-28 melanoma) was 3.54 µM and the TGI (SK-MEL-28 melanoma) was 13.5 µM. For the same molecule, the GI50 (SK-MEL-5 melanoma) was 1.44 µM, the TGI (SK-MEL-5 melanoma) was 2.79 µM and the GI50 (SK-OV-3 ovarian) was 13.8 µM. It also gave a TGI (SK-OV-3 ovarian) of 27.9 µM, a GI50 (SN12C renal) of 2.81 µM and a TGI (SN12C renal) of 9.17 µM. The GI50 (SNB-19 CNS) was 3.88 µM, the TGI (SNB-19 CNS) was 15 µM and the GI50 (SNB-75 CNS) was 1.57 µM. For the same molecule, the TGI (SNB-75 CNS) was 3.49 µM, the GI50 (SW-620 colon) was 3.26 µM and the TGI (SW-620 colon) was 12.8 µM. The GI50 (T-47D breast) was 3.96 µM, the TGI (T-47D breast) was 25.2 µM and the GI50 (TK-10 renal) was 0.596 µM. The TGI (TK-10 renal) was 12.2 µM, the GI50 (U251 CNS) was 3.07 µM and the TGI (U251 CNS) was 11.9 µM. The GI50 (UACC-257 melanoma) was 1.96 µM, the TGI (UACC-257 melanoma) was 4.44 µM and the GI50 (UACC-62 melanoma) was 1.78 µM. For the same molecule, the TGI (UACC-62 melanoma) was 3.72 µM, the GI50 (UO-31 renal) was 2.19 µM and the TGI (UO-31 renal) was 14.5 µM.
